Some results are limits rather than exact numbers.

Test system in one data set: not listed separately
Nature of the data set: Cytotoxicity against human Raji cells assessed as cell viability at 10 molar ratio. The class given is cell-based. The following applies: read-out: Activity.
As for `O=C1c2ccccc2C(=O)c2sccc21` [THIOPHENONAPHTHOQUINONE], the viability at 10 molar ratio is greater than 80%.

For `O=C1C=CC(=O)c2c(O)ccc(O)c21` [NAPHTHAZALIN], the viability at 10 molar ratio is greater than 80%.

In the case of `COc1ccc(OC)c2c1C(=O)c1nccc(C)c1C2=O`, the viability at 10 molar ratio was greater than 80%.

As for `CC1C=CNC2=C1C(=O)c1c(O)ccc(O)c1C2=O` (centres undefined), the viability at 10 molar ratio was greater than 80%.

For the compound `O=C1c2ccccc2C(=O)c2c(O)ccc(O)c21` [QUINIZARIN], the viability at 10 molar ratio is greater than 80%.

In the case of `CC1C=CNC2=C1C(=O)c1cc(O)ccc1C2=O` (centres undefined), the viability at 10 molar ratio is greater than 80%.

With `COc1c(C=O)c(O)cc2c1C(=O)c1ccccc1C2=O` [DAMNACANTHAL], the viability at 10 molar ratio is greater than 80%.

On to `O=C1c2cccc(O)c2C(=O)c2cccc(O)c21` [ANTHRARUFIN], for which the viability at 10 molar ratio is greater than 80%.

As for `CN(C)C1=CC(=O)c2ccccc2C1=O`, the viability at 10 molar ratio is greater than 80%.

Take `Cc1ccnc2c1C(O)c1ccccc1-2` (centres undefined): the viability at 10 molar ratio is greater than 80%.

With `Cc1ccnc2c1C(=O)c1ccccc1C2=O` [CLEISTOPHOLINE], the viability at 10 molar ratio was greater than 80%.

With `CN(C)C1=CC(=O)c2c(O)ccc(O)c2C1=O`, the viability at 10 molar ratio was greater than 80%.

For the next data set, the system named is Raji. Description: Inhibition of TPA-induced EBV-early antigen activation in human Raji cells at 500 molar ratio after 48 hrs by indirect immunofluorescence technique relative to TPA. In kind it is cell-based. The note with it: human gammaherpesvirus 4.
With `O=C1c2ccccc2C(=O)c2sccc21` [THIOPHENONAPHTHOQUINONE], the EBV-EA activation % of TPA control was 0%.

In the case of `O=C1C=CC(=O)c2c(O)ccc(O)c21` [NAPHTHAZALIN], the EBV-EA activation % of TPA control stood at 0%.

Consider `COc1ccc(OC)c2c1C(=O)c1nccc(C)c1C2=O`, for which the EBV-EA activation % of TPA control was 100%.

Take `CC1C=CNC2=C1C(=O)c1c(O)ccc(O)c1C2=O` (centres undefined): the EBV-EA activation % of TPA control was found to be 20.4%.

As for `O=C1c2ccccc2C(=O)c2c(O)ccc(O)c21` [QUINIZARIN], the EBV-EA activation % of TPA control came to 100%.

For `CC1C=CNC2=C1C(=O)c1cc(O)ccc1C2=O` (centres undefined), the EBV-EA activation % of TPA control came out at 62.1%.

`COc1c(C=O)c(O)cc2c1C(=O)c1ccccc1C2=O` [DAMNACANTHAL]: the EBV-EA activation % of TPA control was found to be 51.6%.

With `O=C1c2cccc(O)c2C(=O)c2cccc(O)c21` [ANTHRARUFIN], the EBV-EA activation % of TPA control came out at 70.1%.

On to `CN(C)C1=CC(=O)c2ccccc2C1=O`, for which the EBV-EA activation % of TPA control is 89.2%.

Consider `Cc1ccnc2c1C(O)c1ccccc1-2` (centres undefined), for which the EBV-EA activation % of TPA control was determined as 100%.

As for `Cc1ccnc2c1C(=O)c1ccccc1C2=O` [CLEISTOPHOLINE], the EBV-EA activation % of TPA control came out at 48.7%.

Take `CN(C)C1=CC(=O)c2c(O)ccc(O)c2C1=O`: the EBV-EA activation % of TPA control stood at 28.2%.

For another data set, the system named is Raji. Nature of the data set: Inhibition of TPA-induced EBV-early antigen activation in human Raji cells at 10 molar ratio after 48 hrs by indirect immunofluorescence technique relative to TPA. In kind it is cell-based. The following applies: human gammaherpesvirus 4.
For `O=C1c2ccccc2C(=O)c2sccc21` [THIOPHENONAPHTHOQUINONE], the EBV-EA activation % of TPA control amounted to 81.4%.

Turning to `O=C1C=CC(=O)c2c(O)ccc(O)c21` [NAPHTHAZALIN], the EBV-EA activation % of TPA control came out at 68.9%.

For `COc1ccc(OC)c2c1C(=O)c1nccc(C)c1C2=O`, the EBV-EA activation % of TPA control is 100%.

In the case of `CC1C=CNC2=C1C(=O)c1c(O)ccc(O)c1C2=O` (centres undefined), the EBV-EA activation % of TPA control was 100%.

As to `O=C1c2ccccc2C(=O)c2c(O)ccc(O)c21` [QUINIZARIN], the EBV-EA activation % of TPA control amounted to 100%.

Regarding `CC1C=CNC2=C1C(=O)c1cc(O)ccc1C2=O` (centres undefined), the EBV-EA activation % of TPA control worked out at 100%.

For `COc1c(C=O)c(O)cc2c1C(=O)c1ccccc1C2=O` [DAMNACANTHAL], the EBV-EA activation % of TPA control stood at 100%.

`O=C1c2cccc(O)c2C(=O)c2cccc(O)c21` [ANTHRARUFIN]: the EBV-EA activation % of TPA control was found to be 100%.

For `CN(C)C1=CC(=O)c2ccccc2C1=O`, the EBV-EA activation % of TPA control is 100%.

For `Cc1ccnc2c1C(O)c1ccccc1-2` (centres undefined), the EBV-EA activation % of TPA control stood at 100%.

`Cc1ccnc2c1C(=O)c1ccccc1C2=O` [CLEISTOPHOLINE]: the EBV-EA activation % of TPA control was found to be 100%.

For the compound `CN(C)C1=CC(=O)c2c(O)ccc(O)c2C1=O`, the EBV-EA activation % of TPA control came to 100%.

Test system in the next data set: not listed separately
Nature of the data set: Cytotoxicity against human Raji cells assessed as cell viability at 1000 molar ratio. In kind it is cell-based. The note with it: read-out: Activity.
Regarding `O=C1c2ccccc2C(=O)c2sccc21` [THIOPHENONAPHTHOQUINONE], the viability at 1000 molar ratio is 0%.

In the case of `O=C1C=CC(=O)c2c(O)ccc(O)c21` [NAPHTHAZALIN], the viability at 1000 molar ratio was determined as 20%.

Consider `COc1ccc(OC)c2c1C(=O)c1nccc(C)c1C2=O`, for which the viability at 1000 molar ratio amounted to 70%.

As to `CC1C=CNC2=C1C(=O)c1c(O)ccc(O)c1C2=O` (centres undefined), the viability at 1000 molar ratio was 10%.

Take `O=C1c2ccccc2C(=O)c2c(O)ccc(O)c21` [QUINIZARIN]: the viability at 1000 molar ratio was determined as 70%.

As for `CC1C=CNC2=C1C(=O)c1cc(O)ccc1C2=O` (centres undefined), the viability at 1000 molar ratio was determined as 70%.

For the compound `COc1c(C=O)c(O)cc2c1C(=O)c1ccccc1C2=O` [DAMNACANTHAL], the viability at 1000 molar ratio worked out at 60%.

For the compound `O=C1c2cccc(O)c2C(=O)c2cccc(O)c21` [ANTHRARUFIN], the viability at 1000 molar ratio stood at 70%.

Take `CN(C)C1=CC(=O)c2ccccc2C1=O`: the viability at 1000 molar ratio is greater than 80%.

On to `Cc1ccnc2c1C(O)c1ccccc1-2` (centres undefined), for which the viability at 1000 molar ratio was greater than 80%.

For the compound `Cc1ccnc2c1C(=O)c1ccccc1C2=O` [CLEISTOPHOLINE], the viability at 1000 molar ratio is 70%.

Consider `CN(C)C1=CC(=O)c2c(O)ccc(O)c2C1=O`, for which the viability at 1000 molar ratio came to 50%.

Another data set concerns Raji. Description: Inhibition of TPA-induced EBV-early antigen activation in human Raji cells at 100 molar ratio after 48 hrs by indirect immunofluorescence technique relative to TPA. In kind it is cell-based. The note with it: human gammaherpesvirus 4.
`O=C1c2ccccc2C(=O)c2sccc21` [THIOPHENONAPHTHOQUINONE]: the EBV-EA activation % of TPA control stood at 52.8%.

In the case of `O=C1C=CC(=O)c2c(O)ccc(O)c21` [NAPHTHAZALIN], the EBV-EA activation % of TPA control was determined as 0%.

`COc1ccc(OC)c2c1C(=O)c1nccc(C)c1C2=O`: the EBV-EA activation % of TPA control stood at 100%.

With `CC1C=CNC2=C1C(=O)c1c(O)ccc(O)c1C2=O` (centres undefined), the EBV-EA activation % of TPA control is 100%.

Take `O=C1c2ccccc2C(=O)c2c(O)ccc(O)c21` [QUINIZARIN]: the EBV-EA activation % of TPA control was determined as 100%.

On to `CC1C=CNC2=C1C(=O)c1cc(O)ccc1C2=O` (centres undefined), for which the EBV-EA activation % of TPA control is 66.7%.

Consider `COc1c(C=O)c(O)cc2c1C(=O)c1ccccc1C2=O` [DAMNACANTHAL], for which the EBV-EA activation % of TPA control stood at 92.8%.

Turning to `O=C1c2cccc(O)c2C(=O)c2cccc(O)c21` [ANTHRARUFIN], the EBV-EA activation % of TPA control stood at 92.3%.

As for `CN(C)C1=CC(=O)c2ccccc2C1=O`, the EBV-EA activation % of TPA control was determined as 92.5%.

As to `Cc1ccnc2c1C(O)c1ccccc1-2` (centres undefined), the EBV-EA activation % of TPA control came to 100%.

In the case of `Cc1ccnc2c1C(=O)c1ccccc1C2=O` [CLEISTOPHOLINE], the EBV-EA activation % of TPA control stood at 77.5%.

`CN(C)C1=CC(=O)c2c(O)ccc(O)c2C1=O`: the EBV-EA activation % of TPA control is 87.2%.

Test system in a further data set: not listed separately
Nature of the data set: Cytotoxicity against human Raji cells assessed as cell viability at 500 molar ratio. In kind it is cell-based. The following applies: read-out: Activity.
Regarding `O=C1c2ccccc2C(=O)c2sccc21` [THIOPHENONAPHTHOQUINONE], the viability at 500 molar ratio was 0%.

Regarding `O=C1C=CC(=O)c2c(O)ccc(O)c21` [NAPHTHAZALIN], the viability at 500 molar ratio is 40%.

As for `COc1ccc(OC)c2c1C(=O)c1nccc(C)c1C2=O`, the viability at 500 molar ratio is greater than 80%.

`CC1C=CNC2=C1C(=O)c1c(O)ccc(O)c1C2=O` (centres undefined): the viability at 500 molar ratio was 70%.

Consider `O=C1c2ccccc2C(=O)c2c(O)ccc(O)c21` [QUINIZARIN], for which the viability at 500 molar ratio was greater than 80%.

Consider `CC1C=CNC2=C1C(=O)c1cc(O)ccc1C2=O` (centres undefined), for which the viability at 500 molar ratio is greater than 80%.

With `COc1c(C=O)c(O)cc2c1C(=O)c1ccccc1C2=O` [DAMNACANTHAL], the viability at 500 molar ratio was greater than 80%.

Take `O=C1c2cccc(O)c2C(=O)c2cccc(O)c21` [ANTHRARUFIN]: the viability at 500 molar ratio is greater than 80%.

Turning to `CN(C)C1=CC(=O)c2ccccc2C1=O`, the viability at 500 molar ratio was greater than 80%.

In the case of `Cc1ccnc2c1C(O)c1ccccc1-2` (centres undefined), the viability at 500 molar ratio is greater than 80%.

`Cc1ccnc2c1C(=O)c1ccccc1C2=O` [CLEISTOPHOLINE]: the viability at 500 molar ratio was greater than 80%.

As to `CN(C)C1=CC(=O)c2c(O)ccc(O)c2C1=O`, the viability at 500 molar ratio is greater than 80%.

Test system in a further data set: not listed separately
Description: Cytotoxicity against human Raji cells assessed as cell viability at 100 molar ratio. The following applies: read-out: Activity. The class given is cell-based.
As for `O=C1c2ccccc2C(=O)c2sccc21` [THIOPHENONAPHTHOQUINONE], the viability at 100 molar ratio is 70%.

Regarding `O=C1C=CC(=O)c2c(O)ccc(O)c21` [NAPHTHAZALIN], the viability at 100 molar ratio turned out to be 50%.

With `COc1ccc(OC)c2c1C(=O)c1nccc(C)c1C2=O`, the viability at 100 molar ratio is greater than 80%.

As to `CC1C=CNC2=C1C(=O)c1c(O)ccc(O)c1C2=O` (centres undefined), the viability at 100 molar ratio was greater than 80%.

Take `O=C1c2ccccc2C(=O)c2c(O)ccc(O)c21` [QUINIZARIN]: the viability at 100 molar ratio is greater than 80%.

As to `CC1C=CNC2=C1C(=O)c1cc(O)ccc1C2=O` (centres undefined), the viability at 100 molar ratio was greater than 80%.

`COc1c(C=O)c(O)cc2c1C(=O)c1ccccc1C2=O` [DAMNACANTHAL]: the viability at 100 molar ratio was greater than 80%.

For `O=C1c2cccc(O)c2C(=O)c2cccc(O)c21` [ANTHRARUFIN], the viability at 100 molar ratio was greater than 80%.

For `CN(C)C1=CC(=O)c2ccccc2C1=O`, the viability at 100 molar ratio was greater than 80%.

Turning to `Cc1ccnc2c1C(O)c1ccccc1-2` (centres undefined), the viability at 100 molar ratio was greater than 80%.

As to `Cc1ccnc2c1C(=O)c1ccccc1C2=O` [CLEISTOPHOLINE], the viability at 100 molar ratio was greater than 80%.

As to `CN(C)C1=CC(=O)c2c(O)ccc(O)c2C1=O`, the viability at 100 molar ratio is greater than 80%.

Values taken from ChEMBL document CHEMBL1147306, “Studies on inhibitors of skin tumor promotion, VI. Inhibitory effects of quinones on Epstein-Barr virus activation” (J Nat Prod, 1989).
